Here are results for ten compounds from PMC10008000 (Iranian Journal of Pharmaceutical Research : IJPR, 2023).

Where only a bound is given, the exact number is not on record here.

A short description of data set [1]: MTT assay, normal fibroblast cell line HDF. The data set is classed as cell-based. To be noted: human, HDF normal fibroblast cells.
The test system of a further data set is HT-29 colon cancer cells. As to the kind of experiment: MTT antitumor assay, HT-29. In kind it is cell-based. To be noted: Homo sapiens, HT-29, 48 h, read-out: IC50 (μM) ± SD HT-29. On the technique in general: Tetrazolium dyes change colour on reduction, which living cells bring about.
The subject of data set [2] is MCF-7 breast cancer cells. As to the kind of experiment: MTT antitumor assay, MCF-7. In kind it is cell-based. To be noted: Homo sapiens, MCF7, 48 h, read-out: IC50 (μM) ± SD MCF-7.
The next data set has as its system A-549 lung cancer cells. As to the kind of experiment: MTT antitumor assay, A-549. Particulars: Homo sapiens, A549, 48 h, read-out: IC50 (μM) ± SD A-549. In kind it is cell-based.
Another data set concerns the target EGFR tyrosine kinase (Homo sapiens, UniProt P00533). As to the kind of experiment: EGFR Kinase Assay Kit / Kinase-Glo luminescence kinase assay. In kind it is biochemical. (In general: In Kinase-Glo more light means more ATP remaining.)

EGFR tyrosine kinase, sequence (P00533 25-1210): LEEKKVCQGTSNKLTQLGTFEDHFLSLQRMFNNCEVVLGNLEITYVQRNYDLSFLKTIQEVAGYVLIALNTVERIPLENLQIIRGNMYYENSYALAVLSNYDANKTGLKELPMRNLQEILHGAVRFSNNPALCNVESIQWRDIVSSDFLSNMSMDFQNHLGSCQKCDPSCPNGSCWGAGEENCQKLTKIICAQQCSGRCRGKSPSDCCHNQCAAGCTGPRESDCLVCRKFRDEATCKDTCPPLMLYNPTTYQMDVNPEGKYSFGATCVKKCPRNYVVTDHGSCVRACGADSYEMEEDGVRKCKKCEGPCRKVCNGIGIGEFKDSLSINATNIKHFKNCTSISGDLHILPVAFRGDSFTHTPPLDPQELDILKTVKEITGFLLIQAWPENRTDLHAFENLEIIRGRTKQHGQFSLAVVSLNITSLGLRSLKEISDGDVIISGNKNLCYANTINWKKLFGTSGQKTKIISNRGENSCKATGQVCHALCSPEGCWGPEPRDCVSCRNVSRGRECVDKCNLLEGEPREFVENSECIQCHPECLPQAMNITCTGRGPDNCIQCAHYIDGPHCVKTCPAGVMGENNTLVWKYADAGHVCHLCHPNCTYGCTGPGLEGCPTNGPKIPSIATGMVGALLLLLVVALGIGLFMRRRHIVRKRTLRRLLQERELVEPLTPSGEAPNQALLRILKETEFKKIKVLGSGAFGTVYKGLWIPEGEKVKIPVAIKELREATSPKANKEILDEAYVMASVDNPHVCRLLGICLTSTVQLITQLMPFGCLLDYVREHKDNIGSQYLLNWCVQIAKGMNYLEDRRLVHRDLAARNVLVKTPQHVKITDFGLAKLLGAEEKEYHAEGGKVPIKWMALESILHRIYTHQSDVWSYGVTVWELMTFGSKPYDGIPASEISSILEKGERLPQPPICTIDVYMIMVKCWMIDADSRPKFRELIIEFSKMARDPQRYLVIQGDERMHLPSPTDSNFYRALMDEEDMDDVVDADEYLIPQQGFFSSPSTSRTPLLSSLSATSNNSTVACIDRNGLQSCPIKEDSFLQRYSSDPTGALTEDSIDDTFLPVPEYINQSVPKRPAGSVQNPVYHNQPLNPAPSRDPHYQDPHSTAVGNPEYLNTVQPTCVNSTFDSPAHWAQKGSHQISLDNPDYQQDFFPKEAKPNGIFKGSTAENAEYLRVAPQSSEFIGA

On to `Nc1nc(Nc2ccccc2)c2cc(NCc3ccccc3)ccc2n1` [10a, N^6-benzyl-N^4-phenylquinazoline-2,4,6-triamine], for which, in data set [1], the half-inhibitory concentration (IC50) at 48 h was ≥ 100 µM. The IC50 (in the data set with HT-29 colon cancer cells; in data set [2]; in the data set with A-549 lung cancer cells) was ≥ 100 µM in each case.

For `Cc1ccc(CNc2ccc3nc(N)nc(Nc4ccccc4)c3c2)cc1` [10d, N^6-(4-methylbenzyl)-N^4-phenylquinazoline-2,4,6-triamine], the IC50 against EGFR tyrosine kinase was 45.5 µM; with HT-29 colon cancer cells, ≥ 100 µM; in data set [2], ≥ 100 µM; in the data set on A-549 lung cancer cells, 0.126 ± 0.019 µM. In data set [1], the IC50 at 48 h is ≥ 100 µM.

Regarding `COc1ccc(CNc2ccc3nc(N)nc(Nc4ccccc4)c3c2)cc1` [10e, N^6-(4-methoxybenzyl)-N^4-phenylquinazoline-2,4,6-triamine], the IC50 against EGFR tyrosine kinase is 3.53 µM; with HT-29 colon cancer cells, 13.5 ± 1.89 µM; in data set [2] it was 63.5 ± 1.39 µM; in the data set with A-549 lung cancer cells, 15 ± 0.9 µM. In addition, the IC50 at 48 h in data set [1] is ≥ 100 µM.

Turning to `Cc1ccc(Nc2nc(N)nc3ccc(NCc4ccccc4)cc23)cc1` [10g, N^6-benzyl-N^4-p-methylphenyl quinazoline-2,4,6-triamine], the IC50 at 48 h in data set [1] is ≥ 100 µM. Besides, the concentration for half-maximal inhibition (IC50) (in the data set on HT-29 colon cancer cells; in data set [2]; in the data set with A-549 lung cancer cells) was ≥ 100 µM in each case.

Consider `COc1ccc(Nc2nc(N)nc3ccc(NCc4ccccc4)cc23)cc1` [10h, N^6-benzyl-N^4-(4-methoxyphenyl) quinazoline-2,4,6-triamine], for which the IC50 at 48 h in data set [1] is ≥ 100 µM. Also, the IC50 (with HT-29 colon cancer cells; in data set [2]; in the data set on A-549 lung cancer cells) was ≥ 100 µM throughout.

Turning to `Nc1nc(Nc2ccc(F)cc2)c2cc(NCc3ccccc3)ccc2n1` [10l, N^6-benzyl-N^4-(4-fluorophenyl) quinazoline-2,4,6-triamine], the IC50 at 48 h in data set [1] was ≥ 100 µM. Also, the half-maximal inhibitory concentration (IC50) (in the data set with HT-29 colon cancer cells; in data set [2]; with A-549 lung cancer cells) was ≥ 100 µM throughout.

In the case of `Cc1ccc(C(=O)Nc2ccc3nc(N)nc(Nc4ccccc4)c3c2)cc1` [10n, N-(2-amino-4-(phenylamino)quinazolin-6-yl)-4-methylbenzamide], the IC50 at 48 h in data set [1] was ≥ 100 µM. Besides, the IC50 (in the data set with HT-29 colon cancer cells; in data set [2]; in the data set with A-549 lung cancer cells) was ≥ 100 µM each time.

Take `Nc1nc(Nc2ccccc2)c2cc(NC(=O)c3ccc(F)cc3)ccc2n1` [10p, N-(2-amino-4-(phenylamino)quinazolin-6-yl)-4-fluorobenzamide]: the 50% inhibitory concentration (IC50) at 48 h in data set [1] is ≥ 100 µM. Also, the IC50 (in the data set on HT-29 colon cancer cells; in data set [2]; in the data set on A-549 lung cancer cells) was ≥ 100 µM each time.

As to `COc1cccc2c1C(=O)c1c(O)c3c(c(O)c1C2=O)C[C@@](O)(C(=O)CO)C[C@@H]3O[C@H]1C[C@H](N)[C@H](O)[C@H](C)O1` [Doxorubicin, reference compound], in data set [1], the IC50 at 48 h was ≥ 100 µM. Moreover, the IC50 in the data set with HT-29 colon cancer cells stood at 56.3 ± 0.9 µM; in data set [2], 4.07 ± 0.38 µM; with A-549 lung cancer cells, 4.3 ± 0.3 µM.

For the compound `C#Cc1cccc(Nc2ncnc3cc(OCCOC)c(OCCOC)cc23)c1` [Erlotinib, reference compound], in data set [1], the half-inhibitory concentration (IC50) at 48 h was ≥ 100 µM. The IC50 with HT-29 colon cancer cells is 28.1 ± 0.69 µM; in data set [2], 18.2 ± 2.6 µM; in the data set on A-549 lung cancer cells, 73.3 ± 1.5 µM.

A word on the IC50: it is the midpoint of a concentration-inhibition curve.
